Format in all cases: binding
Assay [1] has as its target T1, panel of 442 kinases (Homo sapiens, UniProt P0C264).
T1 construct: purchased KINOMEscan
T1 sequence (P0C264 1-359): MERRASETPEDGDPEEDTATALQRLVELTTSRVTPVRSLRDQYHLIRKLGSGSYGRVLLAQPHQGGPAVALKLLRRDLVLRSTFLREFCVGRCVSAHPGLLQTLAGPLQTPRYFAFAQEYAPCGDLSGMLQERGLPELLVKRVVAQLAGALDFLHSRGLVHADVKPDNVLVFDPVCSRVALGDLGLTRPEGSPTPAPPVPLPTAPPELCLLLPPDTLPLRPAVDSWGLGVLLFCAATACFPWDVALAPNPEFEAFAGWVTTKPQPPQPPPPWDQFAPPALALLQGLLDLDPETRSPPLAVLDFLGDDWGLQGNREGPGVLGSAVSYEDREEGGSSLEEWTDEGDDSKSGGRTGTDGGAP
As to conditions: kinase SgK110; compound concentration 10 µM. The text has this: (§1) We assessed the selectivity of members of this scaffold using the KINOMEscan methodology across a near comprehensive panel of 442 kinases [[18,27]].

Assay [2] concerns the target T2, panel of 442 kinases (Homo sapiens, UniProt Q15831).
T2 construct: purchased KINOMEscan
T2 sequence (Q15831 1-433): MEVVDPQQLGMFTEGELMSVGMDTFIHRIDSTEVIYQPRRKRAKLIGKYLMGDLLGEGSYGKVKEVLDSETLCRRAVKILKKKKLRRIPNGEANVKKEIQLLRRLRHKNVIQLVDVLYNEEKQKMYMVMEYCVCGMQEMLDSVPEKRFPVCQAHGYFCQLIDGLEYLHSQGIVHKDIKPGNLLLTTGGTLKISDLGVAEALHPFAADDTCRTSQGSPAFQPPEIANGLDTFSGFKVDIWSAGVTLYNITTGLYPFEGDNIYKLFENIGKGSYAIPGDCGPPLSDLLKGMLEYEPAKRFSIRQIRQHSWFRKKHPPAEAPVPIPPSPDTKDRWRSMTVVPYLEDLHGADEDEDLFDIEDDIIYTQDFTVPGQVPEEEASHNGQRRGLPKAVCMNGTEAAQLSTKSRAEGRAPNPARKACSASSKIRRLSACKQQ
As to conditions: Compound Concentration 10 µM.
Source text: as §1

The target of assay [3] is T3, panel of 442 kinases (Homo sapiens, UniProt Q9Y2H1).
T3 construct: purchased KINOMEscan
As to conditions: Compound Concentration 10 µM.
Source text: as §1

T3 sequence (Q9Y2H1 whole entry): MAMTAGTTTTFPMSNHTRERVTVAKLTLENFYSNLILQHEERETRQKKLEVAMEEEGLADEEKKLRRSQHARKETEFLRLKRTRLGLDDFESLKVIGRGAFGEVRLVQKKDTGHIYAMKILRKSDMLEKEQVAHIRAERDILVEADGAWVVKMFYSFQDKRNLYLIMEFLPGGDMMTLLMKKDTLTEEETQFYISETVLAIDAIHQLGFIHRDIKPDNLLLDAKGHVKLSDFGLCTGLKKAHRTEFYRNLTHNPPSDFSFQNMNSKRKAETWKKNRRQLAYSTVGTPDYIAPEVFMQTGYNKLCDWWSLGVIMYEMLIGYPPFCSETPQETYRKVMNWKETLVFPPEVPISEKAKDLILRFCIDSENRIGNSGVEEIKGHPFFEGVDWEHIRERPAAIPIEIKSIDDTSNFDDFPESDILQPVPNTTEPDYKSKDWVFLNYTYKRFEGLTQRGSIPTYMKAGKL

Take `COc1cc(C(=O)N2CCC(N3CCN(C)CC3)CC2)ccc1Nc1ncc2c(n1)N(C)c1ccccc1C(=O)N2C` [15 (LRRK2-IN-1)]: the “% Ctrl, SgK110” value in assay [1] was 62 % Ctrl. In addition, in assay [2], the “KINOMEscan: LKB1” value is recorded as 96. Moreover, in assay [3], the “KINOMEscan: NDR2” value was 100.
`COc1cc(C(=O)N2CCC(N3CCN(C)CC3)CC2)ccc1Nc1ncc2c(n1)N(C1CCCC1)c1ccccc1C(=O)N2C` [Compound 25, 11-cyclopentyl-2-((2-methoxy-4-(4-(4-methylpiperazin-1-yl)piperidine-1-carbonyl)phenyl)amino)-5-methyl-5H-benzo[e]pyrimido[5,4-b][1,4]diazepin-6(11H)-one]: in assay [1], the “% Ctrl, SgK110” value was found to be 43 % Ctrl. The “KINOMEscan: LKB1” value in assay [2] was found to be 82. In addition, the “KINOMEscan: NDR2” value in assay [3] is reported as 100.
In the case of `CCOc1cc(C(=O)N2CCC(N3CCN(C)CC3)CC2)ccc1Nc1ncc2c(n1)N(C1CCCC1)c1ccccc1C(=O)N2C` [Compound 26], in assay [1], the “% Ctrl, SgK110” value is listed as 81 % Ctrl. In assay [2], the “KINOMEscan: LKB1” value is reported as 100. In assay [3], the “KINOMEscan: NDR2” value was 100.
